Reference: PMC8151276, “An Integrated Approach toward NanoBRET Tracers for Analysis of GPCR Ligand Engagement” (Molecules, 2021)

Target: T1, TSHR (Homo sapiens, UniProt P16473)
T1 construct: purchased Promega (in-house HiBiT-GPCR construct library, NanoBRET)
Assay: NanoBRET screen HiBiT-TSHR in HEK293
Format: binding
Method: Each tracer candidate was screened across the entire library of HiBiT-GPCR constructs using NanoBRET as the detection modality. As depicted in Figure 4A, the specificity of interactions was evaluated through decrease in BRET due to competitive displacement of a bound tracer by excess parental compound. Each tracer was analyzed for binding to each HiBiT-GPCR fusion in the absence and in the presence of competing parental compound. Briefly, HEK293 cells were transfected with HiBiT-GPCR constructs diluted into promoterless DNA to reduce expression and maximize translocation to the cell surface. Each tracer candidate was then screened at concentrations of 1 μM and 0.1 μM across cells expressing these fusions. Cells were treated for 1.5 h with tracer either alone or in the presence of 20 μM competing parental compound (i.e., control). BRET was measured upon addition of purified LgBiT and subsequent complementation with HiBiT genetically fused to a GPCR. The specificity of interactions was assessed through a decrease in BRET signal due to competitive displacement of the bound tracer. To further gauge the robustness of these interactions, the fold response over the control (i.e., BRETtracer/BRETcontrol) was calculated. We chose a 1.5-fold response, which translates to ≥7-fold signal over noise as the minimal threshold required to score an interaction as positive.
HiBiT-GPCR DNA constructs were diluted in 10 mM Tris pH 8 to a final concentration of 0.01 μg/μL, arrayed in 96-well plates and stored at −20 °C. For transfection, HEK293 cells were suspended in Opti-MEM (without phenol red) supplemented with 2% fetal bovine serum (Seradigm) and 100 units/mL penicillin–streptomycin (Gibco) at a final concentration of 220,000 cells/mL and dispensed into white 96-well plates at 90 μL/well. Subsequent transfections and screens were carried using an Agilent Bravo Automated Liquid Handling Platform. First, the 96-well HiBiT DNA arrays were diluted 25-fold in Opti-MEM (without serum or phenol red) to a final concentration of 0.0004 μg/μL and 20 μL of the diluted DNAs were transferred into new 96-well plates. Next, promoterless carrier DNA (1 μg/μL) was diluted 25-fold (0.04 μg/μL) and then dispensed into the diluted arrays at 20 μL/well. Following brief mixing, Viafect transfection reagent (Promega) diluted 16-fold into Opti-MEM was dispensed into the plates at 40 μL/well. After mixing by pipetting, plates were incubated for 10 min on the pipetting station deck. The DNA-transfection reagent complexes were then added to plates containing cells. To facilitate the screen, 10 μL of DNA-transfection reagent complexes were added in duplicates to the top 4 and bottom 4 rows, resulting in two identical 48-well arrays per plate. Plates with transfected cells were incubated for 18–20 h at 37 °C/5% CO2. A screen of each tracer across the entire library using two different concentrations requires duplicate plates of transfected cells. Depending on the number of tracers being screened, transfections can be scaled up using the same ratios. The next day, for each tracer, four 20× screening solutions in tracer dilution buffer (Promega) were prepared: two duplicates at final concentration of 20 μM and two duplicates at a final concentration of 2 μM. […] The four resulting solutions were diluted 4-fold in Opti-MEM without serum or phenol red to generate 5× solutions (5 µM and 0.5 µM tracer +/− 100 μM competing compound). To screen the library, a BioTek MultiFlo FX liquid dispenser was used to dispense 22.5 µL of tracer solution to the top 4 rows and 22.5 µL tracer + competing compound solution to the 4 bottom rows. Plates were briefly mixed on an orbital shaker and incubated for 1.5 h at room temperature. […] Plates were briefly mixed on an orbital shaker and incubated for 15 min to allow complementation.

T1 sequence (P16473 21-764): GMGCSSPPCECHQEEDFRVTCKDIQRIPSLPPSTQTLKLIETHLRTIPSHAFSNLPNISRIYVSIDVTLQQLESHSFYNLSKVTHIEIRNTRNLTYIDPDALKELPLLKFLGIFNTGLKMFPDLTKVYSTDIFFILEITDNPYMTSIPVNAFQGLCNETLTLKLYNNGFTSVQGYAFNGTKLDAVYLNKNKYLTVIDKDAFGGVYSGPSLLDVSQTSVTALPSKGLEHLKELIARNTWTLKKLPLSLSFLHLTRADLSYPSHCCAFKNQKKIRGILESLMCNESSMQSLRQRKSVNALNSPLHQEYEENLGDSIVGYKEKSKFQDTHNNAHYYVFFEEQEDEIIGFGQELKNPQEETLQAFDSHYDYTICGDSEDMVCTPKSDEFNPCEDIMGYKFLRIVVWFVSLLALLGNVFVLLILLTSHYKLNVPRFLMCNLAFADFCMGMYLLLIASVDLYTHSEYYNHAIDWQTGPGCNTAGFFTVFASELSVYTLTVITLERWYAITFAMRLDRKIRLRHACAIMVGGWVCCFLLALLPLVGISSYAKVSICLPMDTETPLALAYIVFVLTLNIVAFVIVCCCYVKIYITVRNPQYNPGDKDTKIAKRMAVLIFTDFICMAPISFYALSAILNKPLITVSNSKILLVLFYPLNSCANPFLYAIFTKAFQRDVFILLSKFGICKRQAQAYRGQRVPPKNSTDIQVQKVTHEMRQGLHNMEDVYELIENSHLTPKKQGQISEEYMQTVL

| Compound | NanoBRET Fold Response (TSHR, tracer 0.1μM) | NanoBRET Fold Response (TSHR, tracer 1μM) | also measured |
| --- | --- | --- | --- |
| CCOC(=O)c1cc(C#N)c(N2CCC(C(=O)NS(=O)(=O)Cc3ccccc3/C=C/C(=O)NCCNC(=O)CCc3ccc4n3[B-](F)(F)[N+]3=C(c5ccc[nH]5)C=CC3=C4)CC2)nc1C [AZD1283-1-NB590] | – | – | NanoBRET Fold Response (TSHR, 0.1μM): 1.00; NanoBRET Fold Response (TSHR, 1μM): 0.96 |
| N#CN=C(NCCCOc1cccc(CN2CCCCC2)c1)NCCNC(=O)CCOCCOCCOCCOCCNC(=O)CCc1ccc2n1[B-](F)(F)[N+]1=C(c3ccc[nH]3)C=CC1=C2 [Aminopotentidine-2-NB590] | 1.07 | 1.01 | – |
| COc1ccc2c(n1)c(CCNC(C)=O)cn2CCNC(=O)CCc1ccc2n1[B-](F)(F)[N+]1=C(c3ccc[nH]3)C=CC1=C2 [Azamelatonin-1-NB590] | – | – | NanoBRET Fold Response (0.1μM tracer): 1.25; NanoBRET Fold Response (1μM tracer): 0.91 |
| COc1ccc2[nH]c(-c3ccc(CNC(=O)CCOCCOCCOCCOCCNC(=O)CCc4ccc5n4[B-](F)(F)[N+]4=C(c6ccc[nH]6)C=CC4=C5)cc3)c(CCNC(C)=O)c2n1 [AzomelatoninICO9-2-NB590] | – | – | NanoBRET Fold Response (0.1μM tracer): 1.03; NanoBRET Fold Response (1μM tracer): 0.95 |
| O=C(CCOCCOCCOCCOCCNC(=O)CCc1ccc2n1[B-](F)(F)[N+]1=C(c3ccc[nH]3)C=CC1=C2)NCCCN1CCN(C2=Nc3cc(Cl)ccc3Nc3ccccc32)CC1 [Clozapine-a-2-NB590] | – | – | NanoBRET Fold Response (TSHR, 0.1μM tracer): 0.92; NanoBRET Fold Response (TSHR, 1μM tracer): 1.05 |
| CN1CCN(C2=Nc3cc(Cl)ccc3Nc3ccc(CNC(=O)CCOCCOCCOCCOCCNC(=O)CCc4ccc5n4[B-](F)(F)[N+]4=C(c6ccc[nH]6)C=CC4=C5)cc32)CC1 [Clozapine-b-2-NB590] | – | – | NanoBRET Fold Response (TSHR, 0.1μM tracer): 1.04; NanoBRET Fold Response (TSHR, 1μM tracer): 0.99 |
| CN1CCN(C2=Nc3cc(Cl)ccc3N(CC(=O)NCCOCCOCCOCCOCCNC(=O)CCc3ccc4n3[B-](F)(F)[N+]3=C(c5ccc[nH]5)C=CC3=C4)c3ccccc32)CC1 [Clozapine-c-2-NB590] | – | – | NanoBRET Fold Response (TSHR, 0.1μM tracer): 0.99; NanoBRET Fold Response (TSHR, 1μM tracer): 1.04 |
| O=C(CCOCCOCCOCCOCCNC(=O)CCc1ccc2n1[B-](F)(F)[N+]1=C(c3ccc[nH]3)C=CC1=C2)NCCCN1CCN(C2=Nc3ccccc3Oc3ccc(Cl)cc32)CC1 [Loxapine-a-2-NB590] | 0.97 | 1.07 | – |
| COc1ccccc1N1CCN(CCCCN2C(=O)c3ccc(CNC(=O)CCOCCOCCOCCOCCNC(=O)CCc4ccc5n4[B-](F)(F)[N+]4=C(c6ccc[nH]6)C=CC4=C5)cc3C2=O)CC1 [NAN-190-2-NB590] | 0.96 | 1.06 | – |
| COc1ccccc1N1CCN(CCCCN2C(=O)c3ccc(CNC(=O)CCOCCNC(=O)c4ccc(CNC(=O)CCc5ccc6n5[B-](F)(F)[N+]5=C(c7ccc[nH]7)C=CC5=C6)cc4)cc3C2=O)CC1 [NAN-190-3-NB590] | 1.01 | 1.04 | – |
| O=C(CCc1ccc2n1[B-](F)(F)[N+]1=C(c3ccc[nH]3)C=CC1=C2)NCc1ccc(C(=O)NCCOCCC(=O)N[C@@H]2CC[C@@]3(O)[C@H]4Cc5ccc(O)c6c5[C@@]3(CCN4CC3CC3)[C@H]2O6)cc1 [Naltrexone-3-NB590] | 1.36 | 1.06 | – |
| O=C(CCc1ccc2n1[B-](F)(F)[N+]1=C(c3ccc[nH]3)C=CC1=C2)NCCOCCOCCNC(=O)OCCOCCN1CCN(C2=Nc3ccccc3Sc3ccccc32)CC1 [Quetiapine-a-2-NB590] | 0.96 | 0.92 | – |
| Cc1nc2n(c(=O)c1CCN1CCC(c3noc4cc(F)ccc34)CC1)CCCC2OC(=O)NCCOCCOCCOCCOCCNC(=O)CCc1ccc2n1[B-](F)(F)[N+]1=C(c3ccc[nH]3)C=CC1=C2 (centres unmarked) [Risperidone-2-NB590] | 1.00 | 0.96 | – |
| CC(C)N(CC[C@H](c1ccccc1)c1cc(CCNC(=O)CCOCCOCCOCCOCCNC(=O)CCc2ccc3n2[B-](F)(F)[N+]2=C(c4ccc[nH]4)C=CC2=C3)ccc1O)C(C)C [Tolterodine-2-NB590] | 0.69 | 1.20 | – |
| CC(C)N(CC[C@H](c1ccccc1)c1cc(CCNC(=O)c2ccc(CNC(=O)CCc3ccc4n3[B-](F)(F)[N+]3=C(c5ccc[nH]5)C=CC3=C4)cc2)ccc1O)C(C)C [Tolterodine-BZ-NB590] | 0.96 | 1.08 | – |
| CCCn1c(=O)c2[nH]c(-c3ccc(OCC(=O)NCCNC(=O)CCOCCNC(=O)c4ccc(CNC(=O)CCc5ccc6n5[B-](F)(F)[N+]5=C(c7ccc[nH]7)C=CC5=C6)cc4)cc3)nc2n(CCC)c1=O [XAC-3-NB590] | 1.08 | 1.03 | – |
